# In patent US20070254917A1, “INTRACELLULAR RECEPTOR MODULATOR COMPOUNDS AND METHODS” (priority 2004, published 2007):
# Target: T1, human glucocorticoid receptor protein (GR) (Homo sapiens, UniProt P04150)
# T1 construct: made in house; host or cells: Sf21 insect cells (baculovirus)
# T1 sequence (P04150 1-777): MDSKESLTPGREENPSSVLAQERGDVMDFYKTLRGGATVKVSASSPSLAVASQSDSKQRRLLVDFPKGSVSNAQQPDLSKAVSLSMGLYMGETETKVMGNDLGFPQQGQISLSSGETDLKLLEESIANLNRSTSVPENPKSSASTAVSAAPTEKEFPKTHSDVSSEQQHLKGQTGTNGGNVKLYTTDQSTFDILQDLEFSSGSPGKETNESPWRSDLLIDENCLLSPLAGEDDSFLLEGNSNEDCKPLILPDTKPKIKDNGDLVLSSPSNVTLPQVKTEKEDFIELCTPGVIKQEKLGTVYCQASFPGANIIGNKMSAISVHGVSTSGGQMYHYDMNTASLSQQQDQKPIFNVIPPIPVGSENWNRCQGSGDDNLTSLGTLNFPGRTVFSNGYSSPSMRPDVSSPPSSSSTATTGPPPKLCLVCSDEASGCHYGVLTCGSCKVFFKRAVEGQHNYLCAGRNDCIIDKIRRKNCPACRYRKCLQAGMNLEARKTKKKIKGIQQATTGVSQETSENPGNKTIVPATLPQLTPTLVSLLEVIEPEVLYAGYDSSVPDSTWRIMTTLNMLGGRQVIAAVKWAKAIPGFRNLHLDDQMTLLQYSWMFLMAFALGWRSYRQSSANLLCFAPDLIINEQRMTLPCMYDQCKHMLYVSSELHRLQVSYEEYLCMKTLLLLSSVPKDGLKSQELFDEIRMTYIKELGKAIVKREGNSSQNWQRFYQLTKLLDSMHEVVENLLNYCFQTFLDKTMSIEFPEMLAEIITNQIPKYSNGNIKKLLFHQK
# Assay: Glucocorticoid binding assay ([3H]dexamethasone displacement, GR lysate)
# Settings: baculovirus-expressed GR lysate from Sf21 cells; 2-4 nM [3H]dexamethasone; 16 hours at 4° C.; Cheng-Prusoff from IC50
# Description: A baculovirus expression plasmid comprising cDNA encoding the human glucocorticoid receptor protein (GR) was prepared using standard techniques. […] That expression plasmid was co-transfected together with wild type Autographa californica multiple nuclear polyhedrosis virus DNA into Spodopter frugiperda-21 (Sf-21) cells to generate recombinant virus comprising GR cDNA. […] That recombinant virus comprising GR cDNA was collected.
# A suspension culture of uninfected Sf21 cells was grown to a density of 1.2×10^6 cells/ml and then infected with the recombinant virus comprising GR cDNA at a multiplicity of infection of 2. Those infected Sf21 cells were incubated for 48 hours and then collected by centrifugation at 1000×g for 10 minutes at 4° C. The resulting cell pellets were resuspended in lysis buffer (50 mM Potassium Phosphate buffer, pH 7.0, 10 mM Monothioglycerol, 5 mM DTT, 20 mM Sodium Molybdate, 1 mM PMSF, 1 μg/mL aprotinin, and 10 μg/mL leupeptin) and incubated for 15 minutes on ice. Those resuspended cell pellets were homogenized using a Dounce homogenizer and a B pestle. A volume of 2 M KCl was added to the homogenized cell pellets to a final concentration of 0.4 M. The resulting GR lysates were centrifuged at 100,000×g for 60 min at 4° C. and stored for use in binding assays.
# Binding assay samples were prepared in separate mini-tubes in a 96-well format at 4° C. […] Each reference compound and test compound was assayed at varying concentrations, ranging from 0 to 10^−5 M. Each concentration of each reference compound and each test compound was assayed in triplicate. The assay samples were incubated for 16 hours at 4° C.
# After incubation, 200 μl of 6.25% hydroxylapatite in assay buffer was added to each assay sample to precipitate the protein. The assay samples were then centrifuged and the supernatants were discarded. The resulting pellets were washed twice with assay buffer lacking DTT. Radioactivity in counts per minute (CPM) of each washed pellet was determined by liquid scintillation counter (MicroBeta™, Wallach).
row,SMILES,Ki
1,"COc1cccc(OC)c1-c1cc(C)c2c(c1Cl)C(C)CC(C)(C)N2 (racemic) [Compound 104, (±)-5-Chloro-6-(2,6-dimethoxyphenyl)-1,2,3,4-tetrahydro-2,2,4,8-tetramethylquinoline]",34 nM
2,"Cc1cc(-c2csc3ccccc23)c(Cl)c2c1NC(C)(C)CC2C (racemic) [Compound 109, (±)-6-(Benzothiophen-3-yl)-5-chloro-1,2,3,4-tetrahydro-2,2,4,8-tetramethylquinoline]",4 nM
3,"Cc1cc(-c2cc3ccccc3s2)c(Cl)c2c1NC(C)(C)CC2C (racemic) [Compound 116, (±)-6-(Benzothiophen-2-yl)-5-chloro-1,2,3,4-tetrahydro-2,2,4,8-tetramethylquinoline]",420 nM
4,"Cc1cc(-c2ccccc2Cl)c(Cl)c2c1NC(C)(C)CC2C (racemic) [Compound 118, (±)-5-Chloro-6-(2-chlorophenyl)-1,2,3,4-tetrahydro-2,2,4,8-tetramethylquinoline]",22 nM
5,"CC(=O)c1ccccc1-c1cc(C)c2c(c1Cl)C(C)CC(C)(C)N2 (racemic) [Compound 119, (±)-6-(2-Acetylphenyl)-5-chloro-1,2,3,4-tetrahydro-2,2,4,8-tetramethylquinoline]",97 nM
6,"COc1ccc(Cl)cc1-c1cc(C)c2c(c1Cl)C(C)CC(C)(C)N2 (racemic) [Compound 121, (±)-5-Chloro-6-(5-chloro-2-methoxyphenyl)-1,2,3,4-tetrahydro-2,2,4,8-tetramethylquinoline]",14 nM
7,"Cc1cc(-c2ccccc2[N+](=O)[O-])c(Cl)c2c1NC(C)(C)CC2C (racemic) [Compound 122, (±)-5-Chloro-1,2,3,4-tetrahydro-2,2,4,8-tetramethyl-6-(2-nitrophenyl)quinoline]",78 nM
8,"Cc1cc(-c2cccc(C(F)(F)F)c2F)c(Cl)c2c1NC(C)(C)CC2C (racemic) [Compound 130, (±)-5-Chloro-6-[2-fluoro-3-(trifluoromethyl)phenyl]-1,2,3,4-tetrahydro-2,2,4,8-tetramethylquinoline]",81 nM
9,"Cc1cc(-c2cccc3ccccc23)c(Cl)c2c1NC(C)(C)CC2C (racemic) [Compound 135, (±)-5-Chloro-1,2,3,4-tetrahydro-2,2,4,8-tetramethyl-6-(naphthal-1-yl)quinoline]",8.8 nM
10,"Cc1cc(-c2ccc(F)c3c(C)c[nH]c23)c(Cl)c2c1NC(C)(C)CC2C (racemic) [Compound 147, (±)-5-Chloro-6-(4-fluoro-3-methylindol-7-yl)-1,2,3,4-tetrahydro-2,2,4,8-tetramethylquinoline]",2 nM
11,"COc1c(O)cccc1-c1cc(C)c2c(c1Cl)C(C)CC(C)(C)N2 (racemic) [Compound 151, (±)-5-Chloro-1,2,3,4-tetrahydro-6-(3-hydroxy-2-methoxyphenyl)-2,2,4,8-tetramethylquinoline]",3.6 nM
12,"Cc1cc(-c2cccc3c2CCC3=NO)c(Cl)c2c1NC(C)(C)CC2C (racemic) [Compound 154, (±)-5-Chloro-6-(1-hydroxyiminoindan-4-yl)-1,2,3,4-tetrahydro-2,2,4,8-tetramethylquinoline]",0.4 nM
13,"Cc1cc(-c2cccc(C#N)c2C)c(Cl)c2c1NC(C)(C)CC2C (racemic) [Compound 155, (±)-5-Chloro-6-(3-cyano-2-methylphenyl)-1,2,3,4-tetrahydro-2,2,4,8-tetramethylquinoline]",1.4 nM
14,"COc1c(-c2cc(C)c3c(c2Cl)C(C)CC(C)(C)N3)cccc1[N+](=O)[O-] (racemic) [Compound 156, (±)-5-Chloro-1,2,3,4-tetrahydro-6-(2-methoxy-3-nitrophenyl)-2,2,4,8-tetramethylquinoline]",2.9 nM
15,"Cc1cc(-c2ccsc2)c(Cl)c2c1NC(C)(C)C(O)C2C (racemic) [Compound 160, (±)-5-Chloro-1,2,3,4-tetrahydro-3β-hydroxy-2,2,4α,8-tetramethyl-6-(thiophen-3-yl)quinoline]",130 nM
16,"Cc1cc(-c2c(C)noc2C)c(Cl)c2c1NC(C)(C)C(O)C2C (racemic) [Compound 164, (±)-5-Chloro-6-(3,5-dimethylisoxazol-4-yl)-1,2,3,4-tetrahydro-3β-hydroxy-2,2,4α,8-tetramethylquinoline]",3.3 nM
17,"COc1c(C#N)cccc1-c1cc(C)c2c(c1Cl)C(C)C(O)C(C)(C)N2 (racemic) [Compound 165, (±)-5-Chloro-6-(3-cyano-2-methoxyphenyl)-1,2,3,4-tetrahydro-3β-hydroxy-2,2,4α,8-tetramethylquinoline]",2.7 nM
18,"COc1c(C#N)cccc1-c1cc(C)c2c(c1Cl)C(C)C(=O)C(C)(C)N2 (racemic) [Compound 179, (±)-5-Chloro-6-(3-cyano-2-methoxyphenyl)-1,4-dihydro-2,2,4,8-tetramethyl-2H-quinolin-3-one]",2.6 nM
19,"CC(C)=CCC1(C)C(=O)C(C)(C)Nc2c(C)cc(-c3c(C)noc3C)c(Cl)c21 (racemic) [Compound 185, (±)-5-Chloro-4-(3,3-dimethylallyl)-6-(3,5-dimethylisoxazol-4-yl)-1,4-dihydro-2,2,4,8-tetramethyl-2H-quinolin-3-one]",2.5 nM
20,"COc1c(C#N)cccc1-c1cc(C)c2c(c1Cl)C(C)C(O)C(C)(C)N2 (racemic) [Compound 191, (±)-5-Chloro-6-(3-cyano-2-methoxyphenyl)-1,2,3,4-tetrahydro-3α-hydroxy-2,2,4α,8-tetramethylquinoline]",4.8 nM
21,"Cc1cc(-c2c(C)noc2C)c(Cl)c2c1NC(C)(C)C(O)C2C (racemic) [Compound 192, (±)-5-Chloro-6-(3,5-dimethylisoxazol-4-yl)-1,2,3,4-tetrahydro-3α-hydroxy-2,2,4α,8-tetramethylquinoline]",9.4 nM
22,"Cc1cc(-c2csc3ccccc23)c(Cl)c2c1NC(C)(C)C(O)C2C (racemic) [Compound 194, (±)-6-(Benzothiophen-3-yl)-5-chloro-1,2,3,4-tetrahydro-3α-hydroxy-2,2,4α,8-tetramethylquinoline]",13 nM
23,"CC(C)=CCOc1c(-c2cc(C)c3c(c2Cl)C(C)CC(C)(C)N3)cccc1[N+](=O)[O-] (racemic) [Compound 203, (±)-5-Chloro-1,2,3,4-tetrahydro-2,2,4,8-tetramethyl-6-[2-(methylbut-2-enyloxy)-3-nitrophenyl]quinoline]",56 nM
24,"Cc1cc(-c2cccc3c2OCC(=O)N3)c(Cl)c2c1NC(C)(C)CC2C (racemic) [Compound 204, (±)-6-(2H-1,4-Benzoxazin-3(4H)-on-8-yl)-5-chloro-1,2,3,4-tetrahydro-2,2,4,8-tetramethylquinoline]",26 nM
25,"Cc1cc(-c2cccc3c2OCC(=O)N3C)c(Cl)c2c1NC(C)(C)CC2C (racemic) [Compound 205, (±)-5-Chloro-1,2,3,4-tetrahydro-2,2,4,8-tetramethyl-6-(4-methyl-2H-1,4-benzoxazin-3(4H)-on-8-yl)quinoline]",87 nM
26,"Cc1cc(-c2cccc3c2NCC3)c(Cl)c2c1NC(C)(C)CC2C (racemic) [Compound 210, (±)-5-Chloro-1,2,3,4-tetrahydro-6-(indolin-7-yl)-2,2,4,8-tetramethylquinoline]",5.7 nM
27,"Cc1cc(-c2cccc3ccccc23)c(Cl)c2c1NC(C)(C)CC2(C)O (racemic) [Compound 215, (±)-5-Chloro-1,2,3,4-tetrahydro-4-hydroxy-2,2,4,8-tetramethyl-6-(naphthal-1-yl)quinoline]",5.9 nM
